Experimental data: ChEMBL document CHEMBL5303573, “Mapping human microbiome drug metabolism by gut bacteria and their genes” (Nature, 2019)

How the values were obtained:
[1] = The drug is tested on Eggerthella lenta strain: ATCC25559 for biotransformation. The drug concentrations were measured before and after a 12-h incubation by liquid-chromatography-coupled mass spectrometry (LC–MS); settings: 2 µM
[2] = The drug is tested on Bacteroides fragilis strain: HMW610 for biotransformation. The drug concentrations were measured before and after a 12-h incubation by liquid-chromatography-coupled mass spectrometry (LC–MS); settings: 2 µM
[3] = The drug is tested on Bacteroides ovatus strain: ATCC8483 for biotransformation. The drug concentrations were measured before and after a 12-h incubation by liquid-chromatography-coupled mass spectrometry (LC–MS); settings: 2 µM
[4] = The drug is tested on Bacteroides pectinophilus strain: ATCC43243 for biotransformation. The drug concentrations were measured before and after a 12-h incubation by liquid-chromatography-coupled mass spectrometry (LC–MS); settings: 2 µM
[5] = The drug is tested on Bacteroides uniformis strain: ATCC8492 for biotransformation. The drug concentrations were measured before and after a 12-h incubation by liquid-chromatography-coupled mass spectrometry (LC–MS); settings: 2 µM
[6] = The drug is tested on Odoribacter splanchnicus strain: fecal isolate for biotransformation. The drug concentrations were measured before and after a 12-h incubation by liquid-chromatography-coupled mass spectrometry (LC–MS); settings: 2 µM
[7] = The drug is tested on Parabacteroides merdae strain: ATCC43184 for biotransformation. The drug concentrations were measured before and after a 12-h incubation by liquid-chromatography-coupled mass spectrometry (LC–MS); settings: 2 µM
[8] = The drug is tested on Anaerococcus hydrogenalis strain: DSM7454 for biotransformation. The drug concentrations were measured before and after a 12-h incubation by liquid-chromatography-coupled mass spectrometry (LC–MS); settings: 2 µM
[9] = The drug is tested on Blautia luti strain: DSM14534 for biotransformation. The drug concentrations were measured before and after a 12-h incubation by liquid-chromatography-coupled mass spectrometry (LC–MS); assay type: ADME; set-up: dose 2 uM, timepoint 0 vs 12 hours; settings: 2 µM
[10] = The drug is tested on Clostridium scindens strain: ATCC35704 for biotransformation. The drug concentrations were measured before and after a 12-h incubation by liquid-chromatography-coupled mass spectrometry (LC–MS); settings: 2 µM
[11] = The drug is tested on Clostridium sporogenes strain: ATCC15579 for biotransformation. The drug concentrations were measured before and after a 12-h incubation by liquid-chromatography-coupled mass spectrometry (LC–MS); settings: 2 µM
[12] = The drug is tested on Clostridium symbiosum strain: ATCC14940 for biotransformation. The drug concentrations were measured before and after a 12-h incubation by liquid-chromatography-coupled mass spectrometry (LC–MS); settings: 2 µM
[13] = The drug is tested on Coprococcus comes strain: ATCC27758 for biotransformation. The drug concentrations were measured before and after a 12-h incubation by liquid-chromatography-coupled mass spectrometry (LC–MS); assay type: ADME; set-up: dose 2 uM, timepoint 0 vs 12 hours; settings: 2 µM
[14] = The drug is tested on Subdoligranulum variabile strain: DSM15176 for biotransformation. The drug concentrations were measured before and after a 12-h incubation by liquid-chromatography-coupled mass spectrometry (LC–MS); settings: 2 µM
[15] = The drug is tested on Edwardsiella tarda strain: ATCC23685 for biotransformation. The drug concentrations were measured before and after a 12-h incubation by liquid-chromatography-coupled mass spectrometry (LC–MS); settings: 2 µM
[16] = bacteroides fragilis, 12 h, 2 µM
Description: The drug is tested on Bacteroides fragilis strain: NCTC 9343 for biotransformation. The drug concentrations were measured before and after a 12-h incubation by liquid-chromatography-coupled mass spectrometry (LC–MS)

[17] = bacteroides thetaiotaomicron, 12 h, 2 µM
Description: The drug is tested on Bacteroides thetaiotaomicron strain: 3731 for biotransformation. The drug concentrations were measured before and after a 12-h incubation by liquid-chromatography-coupled mass spectrometry (LC–MS)

[18] = anaerostipes sp., 12 h, 2 µM
Description: The drug is tested on Anaerostipes sp. strain: fecal isolate for biotransformation. The drug concentrations were measured before and after a 12-h incubation by liquid-chromatography-coupled mass spectrometry (LC–MS)

[19] = The drug is tested on Bacteroides vulgatus strain: ATCC8482 for biotransformation. The drug concentrations were measured before and after a 12-h incubation by liquid-chromatography-coupled mass spectrometry (LC–MS); settings: phocaeicola vulgatus, 2 µM
[20] = The drug is tested on Alistipes indistinctus strain: DSM22520 for biotransformation. The drug concentrations were measured before and after a 12-h incubation by liquid-chromatography-coupled mass spectrometry (LC–MS); settings: 2 µM

| Bacterial Biotransformation [1] | Bacterial Biotransformation [2] | Bacterial Biotransformation [3] | Bacterial Biotransformation [4] | Bacterial Biotransformation [5] | Bacterial Biotransformation [6] | Bacterial Biotransformation [7] | Bacterial Biotransformation [8] | Bacterial Biotransformation [9] | Bacterial Biotransformation [10] | Bacterial Biotransformation [11] | Bacterial Biotransformation [12] | Bacterial Biotransformation [13] | Bacterial Biotransformation [14] | Bacterial Biotransformation [15] | Bacterial Biotransformation [16] | Bacterial Biotransformation [17] | Bacterial Biotransformation [18] | Bacterial Biotransformation [19] | Bacterial Biotransformation [20] | SMILES |
| --- | --- | --- | --- | --- | --- | --- | --- | --- | --- | --- | --- | --- | --- | --- | --- | --- | --- | --- | --- | --- |
| Compound NOT metabolized | Compound NOT metabolized | Compound NOT metabolized | Compound NOT metabolized | Compound NOT metabolized | Compound NOT metabolized | Compound NOT metabolized | Compound NOT metabolized | Compound NOT metabolized | Compound NOT metabolized | Compound NOT metabolized | Compound NOT metabolized | Compound NOT metabolized | Compound NOT metabolized | Compound NOT metabolized | Compound NOT metabolized | Compound NOT metabolized | Compound NOT metabolized |  |  | CCCC(=O)Nc1ccc(OCC(O)CNC(C)C)c(C(C)=O)c1 (stereo not drawn) [ACEBUTOLOL] |
| Compound NOT metabolized | Compound metabolized | Compound NOT metabolized | Compound metabolized | Compound metabolized | Compound metabolized | Compound NOT metabolized | Compound NOT metabolized | Compound NOT metabolized | Compound NOT metabolized |  | Compound NOT metabolized |  | Compound NOT metabolized | Compound NOT metabolized | Compound metabolized |  | Compound NOT metabolized | Compound metabolized | Compound NOT metabolized | CN1CCC[C@@H]1CCO[C@](C)(c1ccccc1)c1ccc(Cl)cc1.O=C(O)/C=C/C(=O)O [CLEMASTINE FUMARATE] |
| Compound NOT metabolized | Compound metabolized | Compound NOT metabolized |  | Compound metabolized | Compound metabolized | Compound metabolized | Compound metabolized | Compound NOT metabolized | Compound metabolized |  | Compound NOT metabolized | Compound NOT metabolized | Compound NOT metabolized | Compound NOT metabolized | Compound metabolized | Compound NOT metabolized | Compound NOT metabolized | Compound metabolized | Compound NOT metabolized | CC[C@H](C)C(=O)O[C@H]1C[C@@H](C)C=C2C=C[C@H](C)[C@H](CC[C@@H]3C[C@@H](O)CC(=O)O3)[C@H]21 [LOVASTATIN] |
| Compound NOT metabolized | Compound metabolized | Compound metabolized | Compound metabolized | Compound metabolized | Compound metabolized | Compound metabolized | Compound NOT metabolized | Compound NOT metabolized | Compound NOT metabolized |  | Compound metabolized | Compound metabolized | Compound NOT metabolized | Compound metabolized | Compound metabolized | Compound metabolized | Compound NOT metabolized | Compound metabolized | Compound metabolized | CC(C(=O)O)c1ccc2c(c1)Cc1cccnc1O2 (stereo not drawn) [PRANOPROFEN] |
| Compound metabolized | Compound NOT metabolized | Compound NOT metabolized | Compound metabolized | Compound NOT metabolized | Compound metabolized | Compound NOT metabolized | Compound metabolized | Compound metabolized | Compound metabolized | Compound NOT metabolized | Compound metabolized | Compound metabolized | Compound metabolized | Compound NOT metabolized | Compound metabolized | Compound NOT metabolized | Compound NOT metabolized | Compound metabolized |  | CNC(=C[N+](=O)[O-])NCCSCc1ccc(CN(C)C)o1 [RANITIDINE] |
| Compound metabolized | Compound metabolized | Compound metabolized | Compound metabolized | Compound metabolized | Compound metabolized | Compound metabolized | Compound metabolized | Compound metabolized | Compound metabolized |  | Compound NOT metabolized | Compound metabolized | Compound metabolized | Compound metabolized | Compound metabolized | Compound metabolized | Compound metabolized | Compound metabolized | Compound metabolized | CC(=O)OCC(=O)NCCCOc1cccc(CN2CCCCC2)c1 [ROXATIDINE ACETATE] |
| Compound NOT metabolized | Compound NOT metabolized | Compound NOT metabolized | Compound NOT metabolized | Compound metabolized | Compound metabolized | Compound NOT metabolized | Compound metabolized | Compound NOT metabolized | Compound metabolized |  | Compound NOT metabolized | Compound NOT metabolized | Compound NOT metabolized | Compound metabolized | Compound metabolized | Compound NOT metabolized | Compound metabolized | Compound metabolized | Compound NOT metabolized | CN1CCN(CC/C=C2/c3ccccc3Sc3ccc(S(=O)(=O)N(C)C)cc32)CC1 [THIOTHIXENE] |

| SMILES | Bacterial Biotransformation [1] | Bacterial Biotransformation [2] | Bacterial Biotransformation [3] | Bacterial Biotransformation [4] | Bacterial Biotransformation [5] | Bacterial Biotransformation [6] | Bacterial Biotransformation [7] | Bacterial Biotransformation [8] | Bacterial Biotransformation [9] | Bacterial Biotransformation [10] | Bacterial Biotransformation [11] | Bacterial Biotransformation [12] | Bacterial Biotransformation [13] | Bacterial Biotransformation [14] | Bacterial Biotransformation [15] | Bacterial Biotransformation [16] | Bacterial Biotransformation [17] | Bacterial Biotransformation [18] | Bacterial Biotransformation [19] | Bacterial Biotransformation [20] |
| --- | --- | --- | --- | --- | --- | --- | --- | --- | --- | --- | --- | --- | --- | --- | --- | --- | --- | --- | --- | --- |
| CN(C)C(=O)Oc1cc(OC(=O)N(C)C)cc(C(O)CNC(C)(C)C)c1 (stereo not drawn) [BAMBUTEROL] | Compound NOT metabolized | Compound NOT metabolized | Compound NOT metabolized | Compound NOT metabolized | Compound NOT metabolized | Compound NOT metabolized | Compound NOT metabolized | Compound NOT metabolized | Compound NOT metabolized | Compound NOT metabolized | Compound NOT metabolized | Compound NOT metabolized | Compound NOT metabolized | Compound NOT metabolized | Compound NOT metabolized | Compound NOT metabolized | Compound NOT metabolized | Compound NOT metabolized | Compound NOT metabolized |  |
